The values below come from paper PMC6287599, “2,6-Bis(2-Benzimidazolyl)Pyridine (BBP) Is a Potent and Selective Inhibitor of Small Conductance Calcium-Activated Potassium (SK) Channels” (Frontiers in Pharmacology, 2018).

Entries after “also recorded” stand apart in the source; their conditions may differ.

Assay type in all cases: cell-based
For one experiment, the target named is hSK1 (Homo sapiens, UniProt Q92952). The experiment can be described thus: Manual whole cell patch clamp, HEK293 transiently transfected with hSK1. Conditions: BBP 1 μM, compared to positive control bicuculline methiodide 100 μM, n = 6, read-out: Inhibition of hSK1 current. As to the method: HEK293 cells were transiently co-transfected with the plasmid of interest (hBK, hSK1, hSK2, hSK3 WT, rSK3 H491N, or hIK) and eGFP using standard Lipofectamine™ 2000 (Thermo Fisher Scientific, Waltham, Massachussets, USA) transfection protocols. After transfection, cells were incubated overnight before the experiments.
Manual patch clamp experiments were performed at room temperature in the whole cell configuration with a HEKA EPC9 amplifier and the Patchmaster software (HEKA Elektronik, Ludwigshafen, Germany). All currents were elicited every 2 s using an incremental 200 ms voltage-ramp protocol starting at −80 mV and finishing at +80 mV from a holding potential of 0 mV. […] Currents were measured using the same solutions as the ones used for automated patch clamp, with symmetrical potassium concentrations and a free intracellular calcium concentration of 400 nM. […]
(§1) To assess the effect of BBP on other calcium-activated potassium channels (hBK, hSK3 WT, rSK3 H491N, and hIK), each individual current was first normalized to its cell size using membrane's capacitance (pA/pF) before statistical analysis. […] Statistical significance between saline and the effect of both BBP and the corresponding reference compound was determined for each channel using one-way ANOVA analysis. […]

A further experiment concerns the target Kv7.1/KCNE1 (Homo sapiens, UniProt P51787). The experiment can be described thus: Two-electrode voltage clamp in Xenopus laevis oocytes, Kv7.1/KCNE1. Conditions: BBP 10 μM, TEVC, n = 5. As to the method:
(§2) cRNA was prepared from linearized plasmids using the mMESSAGE mMACHINE T7 kit (Ambion, USA) and quantified by UV spectroscopy (NanoDrop, Thermo Scientific, Wilmington, USA). Xenopus laevis oocytes were acquired from EcoCyte Bioscience (Castrop-Rauxel, Germany). Oocytes were injected with 50 nL cRNA and currents were recorded after 2 days of incubation at 19°C. Currents were recorded at a sampling rate of 10 kHz using a TEVC amplifier (Dagan CA-1B; IL, USA), and borosilicate glass recording electrodes (Module Ohm, Herlev, Denmark), made with a DMZ Universal Puller (Zeitz Instruments, Martinsried, Germany) with a resistance of 0.5–1 MΩ when filled with 2 M KCl. Oocytes were superfused with Kulori (pH 7.4) solution containing NaCl 90 mM, KCl 4 mM, MgCl2 1 mM, CaCl2 1 mM, 4-(2-hydroxyethyl)-1-piperazineethanesulfonic acid 5 mM, and currents were elicited with the voltage protocols previously indicated (Skarsfeldt et al., [2016]), from a holding potential of −80 mV. […]
as §1

A further experiment deals with T1, Kir2.1 (Homo sapiens, UniProt P63252).
T1 sequence (P63252 1-427): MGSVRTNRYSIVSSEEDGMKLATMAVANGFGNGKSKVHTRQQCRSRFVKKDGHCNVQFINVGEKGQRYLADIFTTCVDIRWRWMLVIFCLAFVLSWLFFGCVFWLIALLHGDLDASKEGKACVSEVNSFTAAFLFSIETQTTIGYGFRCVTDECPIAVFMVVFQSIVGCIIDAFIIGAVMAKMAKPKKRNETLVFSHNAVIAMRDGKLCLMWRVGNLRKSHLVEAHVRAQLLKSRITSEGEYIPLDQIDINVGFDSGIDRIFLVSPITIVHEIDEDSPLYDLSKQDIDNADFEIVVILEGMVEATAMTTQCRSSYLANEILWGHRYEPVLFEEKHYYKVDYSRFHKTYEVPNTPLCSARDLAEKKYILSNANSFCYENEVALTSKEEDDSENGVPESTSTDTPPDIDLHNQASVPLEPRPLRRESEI
Briefly: Two-electrode voltage clamp in Xenopus laevis oocytes, Kir2.1. Conditions: BBP 10 μM, TEVC, n = 5. As to the method:
as §2, §1

As for `c1cc(-c2nc3ccccc3[nH]2)nc(-c2nc3ccccc3[nH]2)c1` [BBP, 2,6-Bis(2-benzimidazolyl)pyridine], the inhibition at 1 µM at hSK1 amounted to 93.7 ± 1.6%. Besides, the “Effect on Kv7.1/KCNE1 current” value at Kv7.1/KCNE1 was “did not have any effect; also recorded: did not significantly affect”. The “Effect on Kir2.1 current” value at Kir2.1 was “did not have any effect; also recorded: did not significantly affect”.
